In ChEMBL document CHEMBL1201862, “PubChem BioAssay data set” (2004):
The source made the active and inactive calls. Cut-off read from the data, not from the text of the source: actives have a measured IC50 and inactives only a lower limit.

Target: Envelope glycoprotein gp160 (Human immunodeficiency virus 1, UniProt Q6QLK5)
Assay: cell-free HIV fusion peptide-binding blockers – biochemical, uHTS, fluorescence dequenching, […] (AID 1986)

Envelope glycoprotein gp160, sequence (Q6QLK5 whole entry, the tested form may be a part): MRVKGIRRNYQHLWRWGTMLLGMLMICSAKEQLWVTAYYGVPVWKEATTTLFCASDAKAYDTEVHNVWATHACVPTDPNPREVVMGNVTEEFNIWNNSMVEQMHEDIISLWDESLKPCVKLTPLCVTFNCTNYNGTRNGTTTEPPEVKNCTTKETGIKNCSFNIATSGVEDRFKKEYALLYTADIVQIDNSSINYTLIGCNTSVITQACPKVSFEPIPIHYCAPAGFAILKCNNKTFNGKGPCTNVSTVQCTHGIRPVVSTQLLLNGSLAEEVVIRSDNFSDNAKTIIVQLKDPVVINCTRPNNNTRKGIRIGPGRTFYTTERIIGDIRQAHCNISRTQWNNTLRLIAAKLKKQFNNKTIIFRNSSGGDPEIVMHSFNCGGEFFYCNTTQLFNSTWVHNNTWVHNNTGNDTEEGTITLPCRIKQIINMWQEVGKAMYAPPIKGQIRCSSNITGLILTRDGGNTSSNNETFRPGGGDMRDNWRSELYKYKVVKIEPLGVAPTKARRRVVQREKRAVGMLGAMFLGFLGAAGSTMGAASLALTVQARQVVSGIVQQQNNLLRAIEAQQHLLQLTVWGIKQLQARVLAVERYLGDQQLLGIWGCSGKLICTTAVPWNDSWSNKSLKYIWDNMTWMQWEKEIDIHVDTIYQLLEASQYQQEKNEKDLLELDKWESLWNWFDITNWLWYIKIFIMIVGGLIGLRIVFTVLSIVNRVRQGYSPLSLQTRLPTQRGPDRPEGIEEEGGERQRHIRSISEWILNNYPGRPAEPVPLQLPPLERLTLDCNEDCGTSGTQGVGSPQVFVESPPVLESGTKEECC

COc1ccc(-c2coc3c(C)c4oc(=O)c(CCC(=O)O)c(C)c4cc23)cc1
IC50: 41.7 µM (active)
